Measurements published in patent US11793782B2, “Therapeutic agents for neurodegenerative diseases” (priority 2017, dated 2023).

How the values were obtained:
[1] = test system: NPC Chinese Hamster Ovary (CHO) cells; experiment: Relative lysosomal volume via LysoTracker, NPC CHO cells; format: cell-based; conditions: 1 mM, 72 hours, p<0.01 versus untreated NPC1-null
Text: Relative lysosomal volume was quantified via LysoTracker.

ALS patients = experiment: Case studies, amyotrophic lateral sclerosis (ALS) patients; format: in vivo, human; conditions: ALS Patient 1; medication started around the time of ALS diagnosis
Text: The results were documented by video.

[2] = test system: rat model of an acute unilateral labyrinthectomy; conditions: Zwergal et al. (2016); Gunther et al. (2015); cited from earlier work
[3] = test system: downbeat nystagmus patients; experiment: Case studies, downbeat nystagmus patients; format: in vivo, human; conditions: downbeat nystagmus Patient 1; 10 mg twice daily for four weeks
Text: The patient was diagnosed with downbeat nystagmus: the patient was severely impaired by blurred vision (oscillopsia) due to the nystagmus, and experienced difficulties while reading and writing. The patient's visual acuity was: right 0.75, left 0.67, binocular 0.83, and the downbeat nystagmus was documented by video-oculography. […] The patient could partially suppress the nystagmus by visual fixation, as evaluated using a target center (dot presented in the center of a display for 30 seconds, FIG. 13A) and in complete darkness using goggles covered with special glasses for 45 seconds (FIG. 13B). The results (median of slow phase velocity, SPV) were as follows: Target Center-horizontal: −0.02°/s, vertical: 2.41°/s; Complete Darkness-horizontal: 0.05°/s, vertical: 3.27°/s (FIG. 13C).

[4] = test system: downbeat nystagmus patients; experiment: Case studies, downbeat nystagmus patients; format: in vivo, human; conditions: downbeat nystagmus Patient 2
[5] = test system: Lewy Body dementia patient; experiment: Case study, Lewy Body dementia; format: in vivo, human; conditions: Levodopa 100 mg 4× daily and Quetiapin 25 mg at night
Method: The patient started taking acetyl-leucine (3 g/day for one week; 5 g/day thereafter) and was evaluated after four weeks. […] Medication was reduced to 3 g/day, and the patient was instructed to stop medication about two weeks later.

[6] = test system: restless leg syndrome patients; experiment: Case studies, restless legs syndrome (IRLS score); format: in vivo, human
Text: A widely reported rating scale known as the International Restless Leg Syndrome Study Group Rating Scale (“IRLS”) was developed by the International Restless Legs Syndrome Study Group (“IRLSSG”) (http://www.irlssg.org/) (Walters et al., Validation of the International Restless Legs Syndrome Study Group rating scale for restless legs syndrome. Sleep medicine. 2003 Apr. 1; 4(2):121-32). The IRLS is a 10-item scale with scores ranging from 0 (no symptoms) to 40. Scores >30 are considered very severe, severe (Score 21-30), moderate (scores 11-20) and ≤10, mild. Use of the scale is common for clinical assessment, research and therapeutic trials with RLS. In one embodiment, treatment with leucine, acetyl-leucine, or a pharmaceutically acceptable salt thereof as described herein decreases the subject's International Restless Leg Syndrome Study Group Rating Scale (“IRLS”) compared to a baseline. In one embodiment, the IRLS is reduced compared to baseline by at least 10%, at least 20%, at least 30%, at least 40%, or at least 50%. In one embodiment, the IRLS is reduced by at least 60%, at least 70%, at least 80%, at least 90%, or 100%.
The patient in this case study was a person showing proximal weakness of the so lower limb. […] Upon consultation, they reported no sensory symptoms but complained of a restless leg syndrome at night and during resting periods of the day, occurring over the course of the last two years. Pre-treatment with dopamine agonist were without symptom relief. Serum creatine kinase activity was only mildly elevated at up to 400 IU/L. The patient was evaluated using the RLS diagnostic index (RLS-DI) (see Walters et al., Sleep Med 2003; 4(2):121-132;). The patient's International Restless Legs Syndrome Rating Scale score (IRLS) was 36, and thus a severe RLS was diagnosed. […] Re-introduction of the treatment re-declined the score to 8 after 2 weeks. Continuation of treatment over more than 22 weeks stabilized the IRLS score at 8.
The patient in this case study was a person showing proximal weakness of the lower limb. […] Upon consultation, they reported no sensory symptoms but complained of a restless leg syndrome at night and during resting periods of the day, occurring over the course of the last eight years. […] Serum creatine kinase activity was mildly elevated at 300 IU/L. Iron measurements and all additional lab investigations were normal. The patient was evaluated using the RLS-DI and the patient's IRLS was 32, and thus a moderate to severe RLS was diagnosed. […] Continuation of treatment over more than 28 weeks stabilized the IRLS score at 8.
The patient in this case study was a person showing mild proximal weakness of the upper and lower limbs slowly progressive. The patient had been diagnosed (genetically confirmed) with McArdle myopathy about 16 years ago. Upon consultation, they reported no sensory symptoms but complained about a severe fatigue and reduced stamina. The patient further reported a restless leg syndrome at night and during resting periods of the day, occurring over the course of the last 12 years. […] Serum creatine kinase activity was mildly elevated at 200 IU/L; however, the patient had 5 episodes of rhabdomyolysis during the past 20 years. Repeated iron measurements and all additional lab investigations were normal. The patient was evaluated using the RLS-DI and the patient's IRLS was 34, and thus a severe RLS was diagnosed. […] Continuation of treatment over more than 30 weeks stabilized the IRLS score at 10. In addition, the patient's fatigue declined (Fatigue Severit Scale: 9 (minimum) to 63 (maximum)) from 53 to 28.

[7] = test system: frontotemporal dementia with parkinsonism patient; experiment: Case study, frontotemporal dementia with parkinsonism; format: in vivo, human; conditions: frontotemporal dementia with parkinsonism patient; treatment with L-Dopa and Ropinirol
Text: After approximately one month of acetyl-leucine treatment, medication was stopped and the patient was re-examined 13 days later.

[8] = test system: corticobasal syndrome patient; experiment: Case study, corticobasal syndrome; format: in vivo, human
Method: Gait analysis was performed before treatment commenced.

[9] = test system: progressive supranuclear palsy patients; experiment: Case studies, progressive supranuclear palsy patients; format: in vivo, human
Method: After 27 days of acetyl-leucine treatment, medication was stopped and the patient was re-examined 60 days later. […] Gait analysis was performed before treatment commenced. […] Gait analysis was performed before treatment commenced. After 17 days of treatment, medication was stopped and the patient was re-examined 4 days later. […] Gait analysis was performed before treatment commenced. After three weeks of treatment, medication was stopped and the patient was re-examined.

MSA-P patients [10] = experiment: Case studies, multiple system atrophy Parkinson type (MSA-P) patients; format: in vivo, human; conditions: MSA-P Patient 3
Text: Medication was stopped. […] The patient evaluated after one month on acetyl-DL-leucine. […] Episodes of mental confusion completely disappeared. The patient's cognitive structure seemed much clearer and straighter. […] The patient's spouse supported continuing the medication.

MSA-P patients [11] = experiment: as above; format: in vivo, human; conditions: MSA-P Patient 1; 100/25 mg 3×daily

Q: With `CC(C)C[C@H](N)C(=O)O` [L-leucine] as the compound, how does the “Lysosomal volume (LysoTracker)” value [1] read?
A: significantly reduced lysosomal volume

Q: Which Clinical symptomatology (ALS patients) does the source give for `Nc1nc2ccc(OC(F)(F)F)cc2s1` [Riluzol, reference compound] here?
A: clinical symptomatology remained unchanged

Q: Which results are given for `CC(=O)N[C@@H](CC(C)C)C(=O)O` [acetyl-L-leucine]?
A: Lysosomal volume (LysoTracker) [1]: significantly reduced lysosomal volume; Effect on postural compensation [2]: significant effect

Q: With `Nc1ccncc1` [4-aminopyridine, reference compound] as the compound, how does the Clinical response [3] read?
A: did not give rise to any benefit

Q: What about the Clinical response [4] of the same compound?
A: did not benefit

Q: With `OCCOCCN1CCN(C2=Nc3ccccc3Sc3ccccc32)CC1` [Quetiapin, reference compound] as the compound, how does the Clinical response [5] read?
A: improved the symptomatology

Q: For `CC(=O)N[C@H](CC(C)C)C(=O)O` [acetyl-D-leucine], which “Lysosomal volume (LysoTracker)” value [1] is on record?
A: significantly reduced lysosomal volume

Q: What does the source list for `CC(C)C[C@H](CN)CC(=O)O` [pregabaline, reference compound]?
A: Symptom relief (pre-treatment) ([6]; RLS Patient 2): without sustained symptom relief; Symptom relief (pre-treatment) ([6]; RLS Patient 3): without sustained symptom relief

Q: Which “Lysosomal volume (LysoTracker)” value [1] does the source give for `CC(C)CC(N)C(=O)O` (racemic) [DL-leucine] here?
A: significantly reduced lysosomal volume

Q: For `CC(C)C[C@@H](N)C(=O)O` [D-leucine], which “Lysosomal volume (LysoTracker)” value [1] is on record?
A: significantly reduced lysosomal volume

Q: For `CCCN(CCC)CCc1cccc2c1CC(=O)N2` [Ropinirol, reference compound], which Clinical response [7] is on record?
A: little improvement

Q: What does the source list for `N[C@@H](Cc1ccc(O)c(O)c1)C(=O)O` [L-Dopa, reference compound]?
A: Clinical response [7]: little improvement; Clinical response [8]: no improvement; Clinical response ([9]; PSP Patient 1): little improvement; Clinical response ([9]; PSP Patient 2): no levodopa response; Clinical response ([9]; PSP Patient 3): no levodopa response; Clinical response ([9]; PSP Patient 4): slight levodopa response; Tolerability (MSA-P patients [10]): suspended due to side effects; Clinical response [5]: improved the symptomatology; Symptom relief (pre-treatment) ([6]; RLS Patient 2): without sustained symptom relief; Symptom relief (pre-treatment) ([6]; RLS Patient 3): without sustained symptom relief; Clinical response (MSA-P patients [11]): discreet Levodopa response
